BindingDB's records for doi:10.7270/Q2DB806H (University of Pittsburgh, 2007)

biological target: T1, Dual specificity protein phosphatase 6 (Rattus norvegicus, UniProt Q64346); assay: MKP-3 phosphatase inhibitors, dose response, biochemical, probe assessment (AID 673)
T1 sequence (Q64346 whole entry): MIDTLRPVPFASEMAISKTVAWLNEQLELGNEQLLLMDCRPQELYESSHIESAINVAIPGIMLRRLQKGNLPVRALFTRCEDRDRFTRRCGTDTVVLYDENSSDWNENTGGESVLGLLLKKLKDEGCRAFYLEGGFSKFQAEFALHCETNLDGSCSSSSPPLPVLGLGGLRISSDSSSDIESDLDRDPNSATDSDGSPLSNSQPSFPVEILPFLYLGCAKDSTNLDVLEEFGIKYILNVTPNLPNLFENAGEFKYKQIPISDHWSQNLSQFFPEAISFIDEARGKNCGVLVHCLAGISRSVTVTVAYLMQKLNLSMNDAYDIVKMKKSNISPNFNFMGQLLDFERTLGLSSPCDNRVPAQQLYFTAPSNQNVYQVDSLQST

| IC50 | SMILES |
| --- | --- |
| > 50 µM | COc1ccc2noc3c2c1C(=O)c1ccccc1-3 [MLS000106874] |
| > 50 µM | CCOC(=O)C(C(=O)OCC)c1cc(Br)c2noc3c2c1C(=O)c1ccccc1-3 [MLS000038842] |
| > 50 µM | O=C(OC1CCCCC1)c1ccc2c(c1)C1C=CCC1C(C(=O)O)N2 (stereo not drawn) [SMR000019385] |
| > 50 µM | CCOc1ccc2noc3c2c1C(=O)c1ccccc1-3 [MLS000106837] |
| 12.6 µM | Oc1nc(Nc2ccccc2)cc2ccccc12 [MLS000043701] |
| 3.71 µM | N#Cc1c(N2CCCC2)nc(N)c2c(N)nc(N3CCCC3)cc12 [SMR000061605] |
| > 50 µM | O=C1C=Cc2ccccc2/C1=C/NC12CN3CCN(CN(C3)C1)C2 [MLS000071484] |
| 19.8 µM | Cc1c(N=c2c(=O)c3ccccc3c2=O)c(=O)n(-c2ccccc2)n1C [MLS000105950] |
| > 50 µM | COc1cccc2c1NC(C(=O)O)C1CC=CC21 (stereo not drawn) [SMR000009698] |

Continued, compound first:

| SMILES | IC50 |
| --- | --- |
| Nc1cccc2cnccc12 [isoquinolin-5-amine] | > 50 µM |
| CC(=O)Nc1cc(OC(C)=O)c2nonc2c1OC(C)=O [Acetic acid 7-acetoxy-5-acetylamino-benzo[1,2,5]oxadiazol-4-yl ester] | > 50 µM |
| CCn1nc(-c2cccs2)nc2c(=O)n(C)c(=O)nc1-2 [1-ethyl-6-methyl-3-thiophen-2-yl-pyrimido[5,4-e][1,2,4]triazine-5,7-dione] | 0.629 µM |
| O=C(NC1(O)C(=O)c2ccccc2C1=O)c1ccccc1 [N-(2-hydroxy-1,3-dioxo-2-indenyl)benzamide] | 48.7 µM |
| Cc1ccc2c(c1)C1C=CCC1C(C(=O)O)N2 (stereo not drawn) [MLS-0067149.0001] | > 50 µM |
| c1ccc(CSc2nnc(-c3ccco3)c(-c3ccco3)n2)cc1 [MLS-0029114.0001] | > 50 µM |
| Cc1ccc2c(c1C)NC(C(=O)O)C1CC=CC21 (stereo not drawn) | > 50 µM |
| O=C1Cc2ccccc2C(=O)N1CCc1ccccc1 [2-(2-phenylethyl)-4H-isoquinoline-1,3-dione] | 19.8 µM |
| O=C1C=Cc2ccccc2C1=O [1,2-dihydronaphthalene-1,2-dione] | > 50 µM |
| Cn1ncnc2c(=O)n(C)c(=O)nc1-2 | 0.433 µM |
| O=C(O)C1Nc2c(O)cccc2C2C=CCC12 (stereo not drawn) | > 50 µM |
| COc1cccc2c(C)c(C(=O)O)[nH]c12 | > 50 µM |
| Cc1ccccc1Nc1cc2ccccc2c(O)n1 [3-[(2-methylphenyl)amino]-2H-isoquinolin-1-one] | 12.1 µM |
| [O-]/[N+](=C\c1ccncc1)c1ccccc1 | > 50 µM |
| O=C(Nc1ccc2nc(-c3ccco3)c(-c3ccco3)nc2c1)N1CCCCCC1 | > 50 µM |
| N#Cc1c(N)sc(=S)c2c1CCN(Cc1ccccc1)C2 [3-Amino-7-benzyl-1-thioxo-5,6,7,8-tetrahydro-1H-thiopyrano[3,4-c]pyridine-4-carbonitrile] | 2.74 µM |
| COc1ccc(Br)cc1C=c1sc2nc(-c3ccco3)nn2c1=O [5-[(5-bromanyl-2-methoxy-phenyl)methylidene]-2-(furan-2-yl)-[1,3]thiazolo[3,2-b][1,2,4]triazol-6-one] | > 50 µM |
| [O-]/[N+](=C\c1ccc(OC(F)F)cc1)c1ccccc1 [1-[4-(difluoromethoxy)phenyl]-N-phenylmethanimine oxide] | > 50 µM |
| CCn1nc(-c2ccccc2)nc2c(=O)n(C)c(=O)nc1-2 [1-Ethyl-6-methyl-3-phenyl-1H-pyrimido[5,4-e][1,2,4]triazine-5,7-dione] | 0.615 µM |
